Measured values from the NIST ThermoML archive (doi:10.1021/je025657+).

COC(F)(F)C(F)(F)F [methyl pentafluoroethyl ether]
Conditions	mass density [kg/m3]
240 K, 142.7 kPa, Liquid	1425.44
240 K, 525.8 kPa, Liquid	1426.3
240 K, 1016.6 kPa, Liquid	1427.42
240 K, 1498.9 kPa, Liquid	1428.49
240 K, 2020 kPa, Liquid	1429.64
240 K, 2495.8 kPa, Liquid	1430.67
240 K, 3020.1 kPa, Liquid	1431.83
240 K, 3526.2 kPa, Liquid	1432.91
240 K, 4022.9 kPa, Liquid	1433.98
240 K, 4516.7 kPa, Liquid	1435.03
240 K, 5006.8 kPa, Liquid	1436.06
240 K, 5507.4 kPa, Liquid	1437.1
240 K, 6031.3 kPa, Liquid	1438.18
240 K, 6522.4 kPa, Liquid	1439.2
240 K, 6991.3 kPa, Liquid	1440.14
250 K, 508.4 kPa, Liquid	1401.06
250 K, 999.4 kPa, Liquid	1402.28
250 K, 1512.6 kPa, Liquid	1403.57
250 K, 1981.4 kPa, Liquid	1404.73
250 K, 2484.2 kPa, Liquid	1405.96
250 K, 3006.1 kPa, Liquid	1407.22
250 K, 3493.4 kPa, Liquid	1408.39
250 K, 4031.6 kPa, Liquid	1409.66
250 K, 4527.8 kPa, Liquid	1410.82
250 K, 5017.1 kPa, Liquid	1411.96
250 K, 5520.4 kPa, Liquid	1413.12
250 K, 5982.1 kPa, Liquid	1414.17
250 K, 6505.2 kPa, Liquid	1415.37
250 K, 6941.8 kPa, Liquid	1416.34
260 K, 86.5 kPa, Liquid	1374.31
260 K, 500.8 kPa, Liquid	1375.48
260 K, 1002.7 kPa, Liquid	1376.9
260 K, 1516.5 kPa, Liquid	1378.35
260 K, 2001 kPa, Liquid	1379.71
260 K, 2509.7 kPa, Liquid	1381.11
260 K, 3006.5 kPa, Liquid	1382.45
260 K, 3509.7 kPa, Liquid	1383.8
260 K, 4009.1 kPa, Liquid	1385.14
260 K, 4516.6 kPa, Liquid	1386.48
260 K, 5008.9 kPa, Liquid	1387.75
260 K, 5494.8 kPa, Liquid	1389
260 K, 6029.6 kPa, Liquid	1390.36
260 K, 6497.8 kPa, Liquid	1391.53
260 K, 6976.1 kPa, Liquid	1392.71
270 K, 526.2 kPa, Liquid	1348.82
270 K, 1033.1 kPa, Liquid	1350.45
270 K, 1545.3 kPa, Liquid	1352.07
270 K, 2026.1 kPa, Liquid	1353.57
270 K, 2522.2 kPa, Liquid	1355.11
270 K, 3044.2 kPa, Liquid	1356.7
270 K, 3549.7 kPa, Liquid	1358.22
270 K, 3956.7 kPa, Liquid	1359.43
270 K, 4491.8 kPa, Liquid	1360.99
270 K, 5023.1 kPa, Liquid	1362.54
270 K, 5514.7 kPa, Liquid	1363.95
270 K, 6030.4 kPa, Liquid	1365.42
270 K, 6512.4 kPa, Liquid	1366.76
270 K, 6977.7 kPa, Liquid	1367.99
280 K, 445.3 kPa, Liquid	1320.87
280 K, 957.2 kPa, Liquid	1322.76
280 K, 1474.3 kPa, Liquid	1324.63
280 K, 1861.1 kPa, Liquid	1326.03
280 K, 2459.7 kPa, Liquid	1328.12
280 K, 2951.9 kPa, Liquid	1329.83
280 K, 3497.7 kPa, Liquid	1331.69
280 K, 3963.9 kPa, Liquid	1333.26
280 K, 4513.2 kPa, Liquid	1335.09
280 K, 4981.9 kPa, Liquid	1336.62
280 K, 5492.2 kPa, Liquid	1338.26
280 K, 5847.1 kPa, Liquid	1339.41
280 K, 6466.8 kPa, Liquid	1341.37
280 K, 7194.3 kPa, Liquid	1343.64
290 K, 83.3 kPa, Liquid	1290.78
290 K, 504.8 kPa, Liquid	1292.57
290 K, 981.6 kPa, Liquid	1294.58
290 K, 1520.9 kPa, Liquid	1296.8
290 K, 2011.5 kPa, Liquid	1298.79
290 K, 2520.4 kPa, Liquid	1300.82
290 K, 2991.9 kPa, Liquid	1302.67
290 K, 3491.2 kPa, Liquid	1304.61
290 K, 4006.3 kPa, Liquid	1306.56
290 K, 4525.3 kPa, Liquid	1308.51
290 K, 4985.1 kPa, Liquid	1310.22
290 K, 5527.4 kPa, Liquid	1312.2
290 K, 6024.9 kPa, Liquid	1313.97
290 K, 6484.8 kPa, Liquid	1315.61
290 K, 6967.8 kPa, Liquid	1317.32
300 K, 45.7 kPa, Gas	2.84
300 K, 56.7 kPa, Gas	3.73
300 K, 82 kPa, Gas	5.31
300 K, 93.3 kPa, Gas	6.05
300 K, 98.2 kPa, Gas	6.15
300 K, 116.1 kPa, Gas	7.55
300 K, 131.7 kPa, Gas	8.6
300 K, 165.9 kPa, Gas	10.97
300 K, 188.8 kPa, Gas	12.58
300 K, 218.2 kPa, Gas	15.51
300 K, 225.7 kPa, Liquid	1260.66
300 K, 238.5 kPa, Liquid	1260.72
300 K, 491.2 kPa, Liquid	1262.72

Liquid
Conditions	mass density [kg/m3]
240 K	1425.22
250 K	1399.85
260 K	1374.2
270 K	1347.19
280 K	1319.62
290 K	1291.09
